The nature of data set [1]: Reduction in food intake in hungry rats after oral administration (anorexic activity). It counts as in vivo. Particulars: 10 mg/kg. How it is done: The useful anorexic activity of 4-(4-chlorophenyl)-2, 2-dimethyl-7-(2-dimethylaminoethoxy)-1-methylidene tetralin and 4-(4-chlorophenyl-1,2,2,-trimethyl-7-(2-dimethylaminoethoxy) tetralin were determined by the oral administration to hungry rats of the compound and measuring the reduction in their food intake. The results are as follows: […]

In data set [2] the test system is reserpine-induced hypothermia. The experiment in a line: Reserpine Prevention test (prevention of reserpine-induced hypothermia in mice). It is filed as in vivo. Particulars: Mus musculus, read-out: Approximate Dose required mg/kg (dose at which compounds are active on the Reserpine Prevention Test in Mice). From the text:
The results given in Table 1 were obtained for compounds of the formula (XIII): [drawing 22]

Data set [3] in a line: Oral toxicity in mice (deaths, LD50). The settings on record: for Min Dose (mg/kg) at which deaths occurred: mice; for LD50: mouse, in vivo, po.
A short description of another data set: in vivo. The settings on record: mouse, po.

This note sets out measurements from US4322370A, “Polycyclic compounds” (Beecham Group Limited, priority 1975, dated 1982).

As for `C=C1c2cc(OCCN(C)C)ccc2C(c2ccc(Cl)cc2)CC1(C)C` (centres unmarked) [4-(4-Chlorophenyl)-2,2-dimethyl-7-(2-dimethylaminoethoxy)-1-methylidene tetralin], the “reduction in food intake” value in data set [1] is 51%.
`CC1c2cc(OCCN(C)C)ccc2C(c2ccc(Cl)cc2)CC1(C)C` (centres unmarked) [CH2 CH3 CHCH3 Cl H, 4-(4-Chlorophenyl)-1,2,2-trimethyl-7-(2-dimethylaminoethoxy)tetralin]: the minimal effective dose in data set [2] is 3 mg/kg. The “reduction in food intake” value in data set [1] is 35%. Further, in data set [3], the “Min Dose (mg/kg) at which deaths occurred” value (“Min Dose (mg/kg)” for short) was more than 100 mg/kg and the LD50 is more than 100 mg/kg.
With `CN(C)CCOc1ccc2c(c1)C(Cl)C(C)(C)CC2c1ccc(Cl)cc1` (centres unmarked) [CH2 CH3 CHCl Cl H, 1-Chloro-4-(4-chlorophenyl)-2,2-dimethyl-7-(2-dimethylaminoethoxy)tetralin], in data set [2], the minimal effective dose is 0.1 mg/kg. Besides, in data set [3], the “Min Dose (mg/kg)” value came to 30 mg/kg and the LD50 was 33 mg/kg.
Consider `CN(C)CCOc1ccc2c(c1)C(O)C(C)(C)CC2c1ccc(Cl)cc1` (centres unmarked) [CH2 CH3 CHOH Cl H, 4-(4-Chlorophenyl)-1-hydroxy-2,2-dimethyl-7-(2-dimethylaminoethoxy)tetralin], for which the minimal effective dose in data set [2] amounted to 0.1 mg/kg. Besides, in “in vivo”, the 50% lethal dose (LD50) stood at 11 mg/kg. Besides, the “Min Dose (mg/kg)” value in data set [3] turned out to be 3 mg/kg.
On to `CN(C)CCOc1ccc2c(c1)C(=O)C(C)(C)CC2c1ccc(Cl)c(Cl)c1` (centres unmarked) [CH2 CH3 CO Cl Cl, 4-(3,4-Dichlorophenyl)-2,2-dimethyl-7-(2-dimethylaminoethoxy)-1-tetralone], for which the minimal effective dose in data set [2] amounted to 1 mg/kg. In addition, in data set [3], the “Min Dose (mg/kg)” value is reported as 10 mg/kg and the LD50 fell in the range of 10 to 30 mg/kg.
Taken in the same sequence, the figures for `CN(C)CCOc1ccc2c(c1)C(=O)C(C)(C)CC2c1ccc(Cl)cc1` (centres unmarked) [CH2 CH3 CO Cl H, 4-(4-Chlorophenyl)-2,2-dimethyl-7-(2-dimethylaminoethoxy)-1-tetralone] were 0.03 mg/kg, 10 mg/kg and 55 mg/kg.
Taken in the same sequence, the figures for `CN(C)CCOc1ccc2c(c1)C(=O)C(C)(C)CC2c1cccc(C(F)(F)F)c1` (centres unmarked) [CH2 CH3 CO H CF3, 4-(3-Trifluoromethylphenyl)-2,2-dimethyl-7-(2-dimethylaminoethoxy)-1-tetralone] were 3 mg/kg, more than 100 mg/kg and more than 100 mg/kg.
Taken in the same sequence, the figures for `CNCC(O)COc1ccc2c(c1)C(=O)C(C)(C)CC2c1ccc(Cl)c(Cl)c1` (centres unmarked) [H CO Cl Cl, 4-(3,4-Dichlorophenyl)-7-(2-hydroxy-3-methylaminopropoxy)-2,2-dimethyl-1-tetralone] were 1 mg/kg, more than 100 mg/kg and 100 mg/kg.

By LD50 is commonly meant the dose at which mortality reaches 50%. Read a low LD50 as greater toxicity.
